{
  "source": "patent US20100099109A1",
  "about": "“Methods for Analyzing Drug Response” (NODALITY, INC., A DELAWARE CORPORATION, priority 2008, published 2010)",
  "key": {"[1]": {"settings": "cited from earlier work"}, "[2]": {"system": "U937 cell line", "assay": "Mylotarg/Nocodazole exposure, multiparameter flow cytometry of DNA damage, cell cycle and apoptosis", "assay_type": "cell-based", "settings": "24 hours exposure", "excerpt": "ATM activity also phosphorylates Chk2 and p53. […] Cyclin B1 is produced during the G2 phase of the cell cycle and its accumulation drives the cell cycle into M phase. Therefore, low levels of Cyclin B1 mark G1 and S phases, high levels mark G2 phase, and higher levels mark M phase. Histone H3 (S28) becomes phosphorylated in M phase, making p-Histone H3(S28) a useful marker of cells in M phase and not G2. It is also possible to monitor the G2/M phases of the cell cycle by measuring the phosphorylation status of Cdk1, previously known as Cdc2, a cyclin-dependent protein kinase that controls the cell cycle entry from G2 to M phase. An inhibitory phosphorylation on Cdk1 is removed by CDC25C in the M phase transition, allowing G2 cells to be distinguished from M cells based on levels of p-Cdk1. […] Treating cells with the microtubule polymerization inhibitor Nocodazole induces cells cycle arrest in M phase without DNA damage.\n(§1) The experimental measurements included forward and side scatter, the use of viability dyes (amine aqua and propidium iodide (PI)), and determination of cell cycle and apoptosis by measuring DNA content with DRAQ5. Additionally, cell cycle progression was measured by determining levels of cyclin B1, phosphorylated histone H3, and phosphorylated CDK-1. All these determinations were made in freshly thawed as well as in cultured cycling cells.\n(§2) After incubation with fluorochrome-conjugated antibody panels that recognized: p-H2AX, p-Chk2, p-ATM, p-53, cleaved PARP and cleaved caspase 3, cells were processed for cytometry as described above."}, "[3]": {"system": "Mylotarg refractory cell lines", "assay": "Mylotarg exposure and modulated signaling in resistant cell lines", "assay_type": "cell-based", "settings": "exposed for 5-15 minutes", "protocol": "as §1, §2\n(§3) Experiments were conducted in which cell lines were exposed for 5-15 minutes to growth factors and cytokines, after which cells were fixed, permeabilized and incubated with panels of fluorochrome-conjugated antibody panels that recognized intracellular signaling molecules. After processing, cells were acquired on the cytometer."}, "[4]": {"system": "MDR1 drug pump activity in U937 cells", "assay": "Functional drug transporter assay (DIOC2(3) efflux)", "assay_type": "cell-based", "settings": "Mylotarg sensitive cell line U937", "protocol": "(§4) Determination of transporter functional activity: Transporter activity is measured in subpopulations gated for CD45, CD11b, CD34, CD38, and other surface markers including drug transporters themselves. Fluorescent dyes including calcein-acetoxymethyl ester in the presence or absence of inhibitors cyclosporin or PSC-833 for MDR1, reserpine for BCRP-1 and MK571 or probenecid for MRP-1) are used to evaluate the contribution of each transporter to drug efflux\n(§5) Cells are thawed, counted and resuspended at 0.222×10^6/ml in RPMI 10% FBS. This example uses 100,000 cells in 450 microliters aliquoted into 6 columns of a 96 well Deep-Well “Cell Plate”. However, the experimental setup is not limited to using 100,000 cells/condition. KG-1 cells are included as a control since they express functional MDR-1.\n(§6) 10× Inhibitor or 10× Mock Solutions are prepared by the following protocols: • 10×PSC-833. Stock Conc=2 mM=2000 uM. 10× Conc=20 uM (1:100). • Combine 25 uL stock with 2475 uL DPBS/0.5% BSA • Note Final Conc DMSO=0.1% • Could likely use a range of PSC-833 Concentrations not limited to 2 uM. • This experiment uses Final Concentration of 2 uM • 10×DMSO buffer (mock) • Combine 25 uL DMSO with 2475 uL DPBS/0.5% BSA […]"}, "[5]": {"target": "T1, MDR1 drug pump activity in KG-1 cells (Homo sapiens, UniProt P08183)", "T1 construct": "KG-1 cells are included as a control since they express functional MDR-1; endogenous in cells; host or cells: KG-1 cells", "T1 sequence (P08183 whole entry)": "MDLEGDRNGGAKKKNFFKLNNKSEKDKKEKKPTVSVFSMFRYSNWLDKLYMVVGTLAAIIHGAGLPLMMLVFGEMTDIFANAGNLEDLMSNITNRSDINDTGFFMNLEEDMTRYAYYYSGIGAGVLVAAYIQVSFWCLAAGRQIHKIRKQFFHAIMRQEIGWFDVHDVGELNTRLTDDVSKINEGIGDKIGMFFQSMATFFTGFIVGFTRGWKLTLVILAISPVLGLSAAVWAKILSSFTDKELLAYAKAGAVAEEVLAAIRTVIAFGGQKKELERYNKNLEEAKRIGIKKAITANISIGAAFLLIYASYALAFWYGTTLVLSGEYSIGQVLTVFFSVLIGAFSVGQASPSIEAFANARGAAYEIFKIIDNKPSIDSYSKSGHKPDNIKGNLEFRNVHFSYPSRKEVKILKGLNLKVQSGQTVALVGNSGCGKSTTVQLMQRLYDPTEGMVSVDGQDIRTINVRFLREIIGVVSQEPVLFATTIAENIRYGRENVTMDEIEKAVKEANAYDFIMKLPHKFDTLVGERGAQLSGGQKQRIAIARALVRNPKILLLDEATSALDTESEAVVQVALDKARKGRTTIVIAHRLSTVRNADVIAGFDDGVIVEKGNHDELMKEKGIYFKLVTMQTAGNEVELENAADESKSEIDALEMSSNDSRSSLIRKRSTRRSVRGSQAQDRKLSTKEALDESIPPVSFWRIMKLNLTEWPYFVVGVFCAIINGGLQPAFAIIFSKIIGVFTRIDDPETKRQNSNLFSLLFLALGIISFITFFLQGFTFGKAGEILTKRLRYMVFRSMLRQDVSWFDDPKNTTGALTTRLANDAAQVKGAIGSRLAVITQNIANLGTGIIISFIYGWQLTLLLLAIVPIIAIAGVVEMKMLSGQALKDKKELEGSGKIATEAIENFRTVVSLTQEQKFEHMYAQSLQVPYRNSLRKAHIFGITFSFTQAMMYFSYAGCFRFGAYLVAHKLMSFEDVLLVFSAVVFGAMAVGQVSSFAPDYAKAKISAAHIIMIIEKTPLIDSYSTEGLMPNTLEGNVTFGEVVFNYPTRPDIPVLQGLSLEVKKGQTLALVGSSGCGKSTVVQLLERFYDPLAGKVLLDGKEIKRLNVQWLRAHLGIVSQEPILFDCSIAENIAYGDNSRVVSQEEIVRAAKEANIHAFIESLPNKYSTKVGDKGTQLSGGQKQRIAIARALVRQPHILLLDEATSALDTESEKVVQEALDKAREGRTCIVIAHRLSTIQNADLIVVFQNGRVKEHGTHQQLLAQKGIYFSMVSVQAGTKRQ", "assay": "Functional drug transporter assay (DIOC2(3) efflux)", "assay_type": "cell-based", "settings": "Mylotarg resistant KG-1 cells; co-incubation with inhibitor", "protocol": "as §4, §5, §6"}, "[6]": {"system": "Mylotarg sensitive cell lines", "assay": "Mylotarg exposure and modulated signaling in sensitive cell lines", "assay_type": "cell-based", "settings": "exposed for 5-15 minutes", "protocol": "as §1, §2, §3"}},
  "note": "“Also recorded” adds a separate entry of the source. Read-outs that look alike come from different tables or passages of the source.",
  "data": [
    {"compound": "Nc1ccn([C@@H]2O[C@H](CO)[C@@H](O)[C@@H]2O)c(=O)n1", "note": "[Cytarabine]", "values": [
      {"measurement": "peak plasma concentration", "setting": "[1]; high dose, 3 g/m2", "value": 2, "unit": "µM"},
      {"measurement": "peak plasma concentration", "setting": "[1]; standard dose, 100 mg/m2", "value": "approximately 40 nM"}
    ]},
    {"compound": "COc1cccc2c1C(=O)c1c(O)c3c(c(O)c1C2=O)C[C@@](O)(C(C)=O)C[C@@H]3O[C@H]1C[C@H](N)[C@H](O)[C@H](C)O1", "note": "[Daunorubicin]", "values": [
      {"measurement": "peak plasma concentration", "setting": "[1]; 25 mg/m2", "value": 50, "unit": "ng/mL"},
      {"measurement": "peak plasma concentration", "setting": "[1]; 50 mg/m2", "value": 200, "unit": "ng/mL"}
    ]},
    {"compound": "COC(=O)Nc1nc2cc(C(=O)c3cccs3)ccc2[nH]1", "note": "[Nocodazole]", "values": [
      {"measurement": "cell cycle arrest (Cyclin B1, p-Histone H3(S28), p-Cdk1)", "setting": "[2]", "value": "arrest in M rather than G2"}
    ]},
    {"compound": "CCCCCCCCCCCCCC(=O)O[C@@H]1[C@@H](C)[C@@]2(O)[C@@H](C=C(CO)C[C@]3(O)C(=O)C(C)=C[C@@H]23)[C@@H]2C(C)(C)[C@]12OC(C)=O", "note": "[PMA, phorbol myristic acetate]", "values": [
      {"measurement": "PMA-mediated p-S6", "setting": "[3]", "value": "increase in p-S6"}
    ]},
    {"compound": "C/C=C/C[C@@H](C)C(=O)[C@H]1C(=O)N[C@@H](C(C)C)C(=O)N(C)CC(=O)N(C)[C@@H](CC(C)C)C(=O)N[C@@H](C(C)C)C(=O)N(C)[C@@H](CC(C)C)C(=O)N[C@@H](C)C(=O)N[C@H](C)C(=O)N(C)[C@@H](CC(C)C)C(=O)N(C)[C@@H](CC(C)C)C(=O)N(C)[C@@H](C(C)C)C(=O)N1C", "note": "[PSC-833]", "values": [
      {"measurement": "effect on intracellular levels of DIOC2(3)", "setting": "[4]", "value": "no effect"},
      {"measurement": "effect on MDR1 drug pump activity / intracellular levels of DIOC2(3)", "setting": "[5]", "value": "blocked; also recorded: significant increase in intracellular reporter"}
    ]},
    {"compound": "IL-6: cytokine modulator of JAK/STAT pathways", "values": [
      {"measurement": "IL-6 mediated p-Stat1", "setting": "[6]", "value": "increased"}
    ]},
    {"compound": "SCF: growth factor/cytokine modulator of PI3K, Ras/Raf pathways", "values": [
      {"measurement": "SCF-mediated p-Akt, p-Erk, and p-S6", "setting": "[3]", "value": "increase"}
    ]}
  ]
}
